Data: PubChem BioAssay AID504882 (Broad Institute, 2011)
Inconclusive results are not listed. Calls of active or inactive are those of the source. The rule behind the calls is not given here.

What follows are compounds tested on EBV lymphoblastoid cells (LCL) viability, plate reader (assay: LCL viability reduction – cell-based, plate reader, cherry-picks, set 2, cytotoxicity control, dose response (AID 504882)).
For `COc1ccccc1-c1nc(-c2ccccn2)no1`, the AC50 was 10.8 µM. Compound `O=C(NC(c1ccc(Cl)cc1)c1cc(Cl)c2cccnc2c1O)c1cccnc1` (centres undefined) has an AC50 of 4.72 µM. With `COc1ccccc1/C=C/C(=O)c1ccc(Cl)cc1` the AC50 was > 19.5 µM (inactive). With `CCCCC(=O)NC(c1ccc(OC)c(OC)c1)c1ccc2cccnc2c1O` (centres undefined) the AC50 was 5.63 µM. `COc1ccc(C(NC(C)=O)c2cc(Cl)c3cccnc3c2O)cc1` (centres undefined) was tested, and the AC50 was 6.92 µM. `CCCc1c(C(=O)N/N=C(\C)c2ccccn2)nnn1-c1nonc1N` was tested, and the AC50 was 1.57 µM. `COc1ccc(O)c(/C=N/NC(=O)c2ccc(OCc3cccc(Br)c3)cc2)c1` was tested, and the AC50 was 4.03 µM. For `O=C(CCc1ccccc1)NC(c1cccs1)c1cc(Cl)c2cccnc2c1O` (centres undefined), the AC50 was 7.03 µM. With `CCCC(=O)NC(c1ccc(C(C)C)cc1)c1ccc2cccnc2c1O` (centres undefined) the AC50 was 1.74 µM. For `Nc1ccn([C@@H]2O[C@H](CO)[C@@H](O)C2O)c(=O)n1` (some centres undefined), the AC50 was 1.1 µM. Compound `CC(=NNc1nc2ccccc2o1)c1cc2ccccc2cn1` has an AC50 of 0.154 µM. Compound `CC(=O)NC(c1ccc(Cl)cc1)c1ccc2cccnc2c1O` (centres undefined) has an AC50 of 1.21 µM. Work on `Cc1cccc(-n2ncc(Cl)c(Cl)c2=O)c1` yielded an AC50 of 1.59 µM. In the case of `COc1cccc(N=Nc2ccc(O)c3ncccc23)c1`, the AC50 is reported as 2.18 µM. In the case of `Oc1ccc2ccccc2c1N=Nc1ccccn1`, the AC50 is reported as 4.54 µM. `Cn1c(/C=C/c2ccccc2)nc2ccccc21` showed an AC50 of 13.9 µM. `CC(=NNc1nc2ccccc2s1)c1ncccn1` showed an AC50 of 10.2 µM. Work on `CC(=NNC(=S)N1CCCC1)c1ccccn1` yielded an AC50 of 0.037 µM. For `Cc1cc(C)nc(SCc2ccc(C(=O)N/N=C/c3cccc(O)c3O)cc2)n1`, the AC50 was 10.9 µM. Compound `C=CCn1c(O)c(N=NC(=S)Nc2ccccc2F)c2ccccc21` has an AC50 of 10.2 µM. `COc1ccc(C(=O)NC(=S)NNC(=O)c2ccc3ccccc3n2)cc1` showed an AC50 of 3.69 µM. `CN(C)c1ccc(C=Cc2ccnc3c(O)cccc23)cc1` showed an AC50 of 10.5 µM. `Oc1cccc2ccc(Nc3ccccn3)nc12` showed an AC50 of 6.35 µM. With `CC(=NNC(=S)N1CCCCCC1)c1ccccn1` the AC50 was 0.354 µM. Compound `CS(=O)(=O)c1ncc(Cl)c(C(=O)Nc2ccc(OC(F)F)cc2)n1` has an AC50 of 4.53 µM. `C=CCn1c(O)c(N=NC(=S)Nc2cccc(C)c2)c2ccccc21` gave an AC50 of 2.48 µM. Work on `CC(=NNC(=S)Nc1ccccc1)c1ccccn1` yielded an AC50 of 0.068 µM. `Fc1ccc2[nH]c3c(N4CCSCC4)ncnc3c2c1` was tested, and the AC50 was 17.5 µM. For `Cc1ccc2[nH]c3c(c2c1)CCCC3NC(=O)CCl` (centres undefined), the AC50 was 1.41 µM. In the case of `N#Cc1ccc(-c2csc(NNC(=O)c3ccc(Br)cc3)n2)cc1`, the AC50 is reported as 5.38 µM. `O=Cc1ccc(-c2cccs2)s1` gave an AC50 of 11.8 µM. Compound `C(=Cc1cnc2ccccc2n1)c1ccc2c(c1)OCO2` has an AC50 of 6.12 µM. Compound `CCCCC(=O)NC(c1ccc(Cl)cc1)c1ccc2cccnc2c1O` (centres undefined) has an AC50 of 3.65 µM. `O=C(Nc1nc(-c2ccccn2)cs1)c1ccc(Cl)s1` was tested, and the AC50 was 1.34 µM. `Cc1cc(Sc2nnc(N)s2)c2ccccc2n1` gave an AC50 of 16.8 µM. For `COc1cccc(/C=N/Nc2ncnc3c2ncn3Cc2ccccc2)c1O`, the AC50 was 2.21 µM. With `C/C(=N/NC(=O)c1ccc(C(C)(C)C)cc1)c1ccccn1` the AC50 was 1.05 µM. `O=[N+]([O-])c1ccc(O)c(/C=N/Nc2ncnc3c2cnn3-c2ccccc2)c1` was tested, and the AC50 was 4.55 µM. `COc1nc(Nc2nc3ccccc3c(=O)[nH]2)nc2ccc(C)cc12` showed an AC50 of 2.23 µM. `COc1cccc(/C=N/Nc2nccnc2Cl)c1O` showed an AC50 of 3.86 µM. `CN1CCN(/N=C/c2ccc(N(c3ccccc3)c3ccccc3)cc2)CC1` gave an AC50 of 0.354 µM. For `O=C(c1cccc(F)c1)N1CCN(c2cccc(Cl)c2)CC1`, the AC50 was 3.11 µM. `CC(=NNC(=S)N1CC2CCC(CC2)C1)c1nccs1` gave an AC50 of 0.362 µM. Compound `COc1ccc(/C=N/Nc2cc(C)nc3ccc(OC)cc23)c(OC)c1` has an AC50 of 3.47 µM. In the case of `COc1ccccc1[C@]1(C)ON(c2ccccc2C(F)(F)F)C1=O`, the AC50 is reported as 16.7 µM. Work on `c1ccc(C(=NNc2nc3ccccc3s2)c2ccccn2)cc1` yielded an AC50 of 1.06 µM. `Cc1nc2c(-c3ccc(Cl)cc3)c(C)[nH]n2c(=O)c1Cc1ccccc1` was tested, and the AC50 was 6.96 µM. In the case of `CN1C(=O)N(C)c2ccc(C=O)c3cccc1c23`, the AC50 is reported as 5.99 µM. For `CCNc1ccc(Br)cc(C(=O)/C=C/c2c(Cl)cccc2Cl)c1=O`, the AC50 was 13.8 µM. Work on `CCN(CC)c1ccc(/C=N/NC(=O)c2cnccn2)c(O)c1` yielded an AC50 of 3.23 µM. `O=C1C(=C(c2ccccc2)N2CCOCC2)Cc2ccccc21` showed an AC50 of 5.38 µM. Work on `CCN1CCN(Cc2ccc(NC(=O)c3ccc(C)c(NC(=O)c4c[nH]c5cc(C(F)(F)F)ccc5c4=O)c3)cc2C(F)(F)F)CC1` yielded an AC50 of 3.95 µM. For `O=C(N/N=C/c1c(O)ccc2ccccc12)c1ccc(Br)o1`, the AC50 was 6.22 µM. Compound `Clc1ccc(SCc2cc(N3CCOCC3)nc(-c3ccccn3)n2)cc1` has an AC50 of 4.05 µM. Compound `CC(=O)c1ccc(-c2nc3c4ccccc4ccn3c2C(C)=O)o1` has an AC50 of 0.371 µM. Compound `COc1ccc(N/N=C/c2c(C(=O)O)ccc3ccccc23)cc1` has an AC50 of 3.99 µM. Compound `Cc1cc(N/N=C\c2ccc(Br)cc2)nc(-n2nc(C)cc2C)n1` has an AC50 of 4.81 µM. Work on `O=[N+]([O-])c1c(Nc2cccc(O)c2)cc(Cl)c2nonc12` yielded an AC50 of 2.73 µM. Compound `O=C(CF)N(O)c1ccc(C=Cc2ccccc2)cc1` has an AC50 of 4.21 µM. For `COc1cc(C=C2CCCC(=Cc3ccc(OCC4CO4)c(OC)c3)C2=O)ccc1OCC1CO1` (centres undefined), the AC50 was 5.45 µM. `O=C(CCl)N(c1ccc(Cl)cc1)c1c[nH]c2ccccc12` was tested, and the AC50 was 3.35 µM. Work on `CCN(CC)S(=O)(=O)c1cccc(NC(=O)Nc2cccc(C(F)(F)F)c2)c1` yielded an AC50 of 9.7 µM. With `O=S(=O)(c1ccccc1)N1CCN(c2cc(-c3ccccc3)nc3ncnn23)CC1` the AC50 was > 19.5 µM (inactive). `CC(=O)Nc1nc(C)c(-c2csc(Nc3ccc(O)cc3)n2)s1` showed an AC50 of 19.4 µM. `CC(=NNC(=S)N1CCCCC1)c1cccc(C)n1` gave an AC50 of 2.37 µM. `CCOc1ccc(C(C)=O)cc1COc1cccnc1[N+](=O)[O-]` was tested, and the AC50 was > 19.5 µM (inactive). Compound `S=C(NN=Cc1ccccn1)Nc1ccccn1` has an AC50 of 9.02 µM. `CC(=NNC(=S)Nc1ccc(C)cc1)c1ccccn1` gave an AC50 of 0.269 µM. `CC1(C)N=C(N)N=C(N)N1c1ccc(CCCCc2ccccc2)cc1` gave an AC50 of 0.991 µM. `C=C1C(=O)C2=CC1CCC(=O)C1(C)CCC(OC(C)=O)C(C)(C)C1CC2O` (centres undefined) gave an AC50 of 5.14 µM. Work on `O=c1c2c(nc3c(-c4cccc(Br)c4)c[nH]n13)CCCC2` yielded an AC50 of 11 µM. Compound `CCn1c2ccccc2c2cc(/C=N/NC(=O)c3ccccc3)ccc21` has an AC50 of 1.52 µM. `CN=C1S/C(=C\c2ccc(O)c(Br)c2)C(=O)N1C` was tested, and the AC50 was > 19.5 µM (inactive). For `COc1ccccc1N(C(C)=O)C1=C(Cl)C(=O)c2ccccc2C1=O`, the AC50 was 2.59 µM. Compound `CCN(CC)c1ccc(/C=N/NC(=O)c2ccc3nc[nH]c3c2)c(O)c1` has an AC50 of 4.14 µM. With `NC(=S)NN=Cc1nccc2c(C(F)(F)F)cccc12` the AC50 was 1.15 µM. Work on `CCOC(=O)CC(NC(=O)C(Cc1ccc(N(CCCl)CCCl)cc1)NC(C)=O)C(=O)OCC` (centres undefined) yielded an AC50 of 5.68 µM. In the case of `CCN1CCN(Cc2ccc(NC(=O)c3ccc(C)c(/C=C/c4cnc(Nc5cc(N6CCNCC6)nc(C)n5)cn4)c3)cc2C(F)(F)F)CC1`, the AC50 is reported as 9.23 µM. Compound `Cc1ccc(CSc2nc3ccncc3[nH]2)cc1` has an AC50 of 19.5 µM. Compound `Oc1cccc(C(Nc2nccs2)c2ccc3cccnc3c2O)c1` (centres undefined) has an AC50 of 11.4 µM. With `C=CCn1c(C)c(C(C)=O)c(N2CCN(C(c3ccccc3)c3ccccc3)CC2)nc1=S` the AC50 was > 19.5 µM (inactive). `O=C(Nc1nc(-c2ccccn2)cs1)c1ccc(Br)s1` showed an AC50 of 1.29 µM. Compound `c1ccc(C2=NNC(=NC3CC3)SC2)cc1` has an AC50 of 11.9 µM. With `Cc1ccc2nc(-c3ccccn3)[nH]c2c1` the AC50 was 19.5 µM. For `C=CC(=O)OCCOCCOCCOCCOC(=O)C=C`, the AC50 was 16.9 µM. Compound `Cc1ccc(C(=O)Nc2sc(Cc3ccc4c(c3)OCO4)c(C)c2C(N)=O)cc1` has an AC50 of 19.2 µM. With `CCOC(=O)c1c(C)[nH]c(C(=O)N/N=C\c2ccccc2O)c1C` the AC50 was 6.7 µM. In the case of `NC(=S)N/N=C/c1ncc(C(F)(F)F)cc1Cl`, the AC50 is reported as 10.6 µM. With `CCn1c2ccccc2c2cc(/C=N/NC(=O)c3ccncc3)ccc21` the AC50 was 3.31 µM. Compound `O=C(N/N=C/c1sc2ccccc2c1O)c1cccc2ccccc12` has an AC50 of 1.71 µM. For `O=C(Oc1c(Cl)cc(Cl)c2cccnc12)c1cccc([N+](=O)[O-])c1`, the AC50 was 18.8 µM. With `CC(=O)OC1CCC2(C)C(CCC3C4CC=C(C(C)=O)C4(C)OC(=O)CC32)C1` (centres undefined) the AC50 was 3.85 µM. Compound `CCNC(=S)NNC(=O)c1cc(-c2ccc(OCC)cc2)nc2ccccc12` has an AC50 of 7.85 µM. Compound `CCCCC(=O)NC(c1cccc([N+](=O)[O-])c1)c1ccc2cccnc2c1O` (centres undefined) has an AC50 of 5.14 µM. In the case of `O=C(N/N=C/c1ccc(O)cc1O)c1ccc(CN2C(=O)c3cccc4cccc2c34)cc1`, the AC50 is reported as 3.53 µM. Compound `C=CCNC(=S)N/N=C(\C)c1ccccn1` has an AC50 of 0.13 µM. `CCOc1ccc(C(=O)Nc2cc(C)ccn2)cc1` gave an AC50 of 9.64 µM. `Oc1c(C(Nc2nc3ccccc3s2)c2ccco2)ccc2cccnc12` (centres undefined) showed an AC50 of 2 µM. Work on `CNc1cccnc1C=NNC(N)=S` yielded an AC50 of 7.97 µM.
